In PMC8113459, “Selective inhibition of cullin 3 neddylation through covalent targeting DCN1 protects mice from acetaminophen-induced liver toxicity” (Nature Communications, 2021):
“And” between values parts separate entries of the source, which are not always exact repeats. Equal values may be shown once.

How the values were obtained:
[1] = biological target: T1, DCN1 (Homo sapiens, UniProt Q96GG9); assay: Intact-protein mass spectrometric analysis of covalent complex formation, Method A; assay type: binding; conditions: for Percentage of the formation of covalent complex with DCN1 protein: 37 °C
Excerpt: MassHunter Qualitative Analysis software (Agilent) was used to analyze the data. Intact protein masses were obtained using the maximum entropy deconvolution algorithm. The mass spectrometry data in Supplementary Figs. 1–11 were generated by Method A.
Target sequence in this assay (Q96GG9 58-259 limits assumed): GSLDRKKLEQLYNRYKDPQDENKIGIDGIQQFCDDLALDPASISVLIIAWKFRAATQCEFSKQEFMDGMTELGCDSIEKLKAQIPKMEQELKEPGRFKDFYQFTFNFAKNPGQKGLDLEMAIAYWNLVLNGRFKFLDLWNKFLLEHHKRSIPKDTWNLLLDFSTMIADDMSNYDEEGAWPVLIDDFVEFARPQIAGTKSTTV

[2] = test system: neddylation of cullin 3; assay: Western blot, cullin 3 neddylation in U2OS cells; assay type: cell-based, human; conditions: for concentration as low as which cullin 3 neddylation is inhibited / potency in inhibition of cullin 3 neddylation compared with DI-591 / times more potent than DI-591 in inhibition of cullin 3 neddylation: 24 h, Fig. 1c
Procedure: (§1) Western blotting was performed as described previously. Treated cells were lysed by RIPA buffer supplemented with protease inhibitor. The expression level of indicated proteins was examined by immunoblotting analysis and GAPDH was used as the loading control. Antibodies were purchased commercially: cullin 1 (sc-17775, 1:500 dilution) and cullin 2 (sc-166506, 1:500 dilution) from Santa Cruz Biotech (Santa Cruz, CA); cullin 4A (PA5-14542, 1:1000 dilution), cullin 4B (PA5-50647, 1:1000 dilution), and DCN3 (DCUN1D3, PA5-44000, 1:1000 dilution) from Thermo Fisher Scientific (Wayne, MI); cullin 3 (2759, 1:1000), NRF2 (12721, 1:1000 dilution), HO-1 (70081, 1:1000 dilution), and Bim (2819, 1:1000 dilution) from Cell Signaling Technology (Boston, MA); DCN1 (GWB-E3D700, 1:1000 dilution) from GenWay Biotech (San Diego, CA); and cullin 5 (A302-173A, 1:500 dilution) from Bethyl Labs (Montgomery, TX). Results are representative of two independent experiments.

[3] = test system: neddylation of cullin 1, 2, 4A, 4B, and 5; assay: Western blot, neddylation of other cullin members; assay type: cell-based, human; conditions: for selectivity in inhibition of the neddylation of cullin 3 over other cullin members: a number of cell lines
Procedure: as §1

[4] = test system: NRF2 protein; assay: Western blot, NRF2 protein accumulation in cells; assay type: cell-based, human
Procedure: as §1

[5] = test system: KEAP1 and p62 proteins; assay: Western blot, KEAP1 and p62 in U2OS and THLE2 cells; assay type: cell-based, human; conditions: 6 h
Procedure: as §1
Supplementary Figure 22. Western blotting analysis of Keap1 and p62 in U2OS cells (a) and […]
The cells were treated with compounds as indicated for 6 h. Treated cells were harvested and lysed with RIPA buffer. The expression of P62 and Keap1 were examined by western blotting analysis. Antibody information:
Keap1 (cst, #8047), P62 (cst,#5114). GAPDH was used as a loading control. Representative images of two independent experiments are shown. […]

[6] = test system: p21, BIM and CDT1 proteins; assay: Western blot, CRL1 and CRL4A substrates; assay type: cell-based, human
Procedure: as §1

[7] = test system: NRF2 protein in mouse liver tissue; assay: Pharmacodynamics: NRF2 protein in mouse liver tissue (western blot); assay type: in vivo; conditions: single dose 25 mg/kg IP; for upregulation of NRF2 protein in the mouse liver: C57BL/6 male mice
Procedure: Fig. 7 DI-1859 effectively increases the level of NRF2 protein in the liver tissue and protects liver tissue damage induced by acetaminophen (APAP) in mice. a Western blotting analysis of the effect of DI-1548 or DI-1859 on the level of NRF2 protein in mouse liver tissue. Liver tissues harvested from C57BL/6 male mice treated with DI-1548 or DI-1859 at 25 mg/kg via intraperitoneal (IP) injection was lysed with RIAP buffer. The expression level of NRF2 protein was examined by western blotting. GAPDH was used a loading control. Representative images of two independent experiments are shown. b Analysis of the serum alanine aminotransferase (ALT) level in mice. The time (h) counted from APAP administration in G2 and G5-8, from DI-1859 or vehicle administration in G1, G3, and G4. Data are presented as mean ± s.d. with n = 9 (G1), 9 (G2), 8 (G3), 8 (G4), 9 G5), 9 (G6), 9 (G7), and 9 (G8). c Immunohistological analysis of mouse liver tissues. Images are representatives in each group. Images were taken with a 100× objective. Scale bar: 100 µm. d Analysis of the ROS level in mouse liver tissue. Data are presented as mean ± s.d. with n = 9 (G1), 8 (G2), 8 (G3), 8 (G4), 8 (G5), 6 (G6), 9 (G7), and 9 (G8). G1: Vehicle (qD for 3 days); G2: APAP (400 mg/kg, a single dose); G3: DI-1859 (25 mg/kg, qD for 3 days); G4: DI-1859 (50 mg/kg, qD for 3 days); G5: DI-1859 (25 mg/kg, qD for 3 days), a single dose of APAP at 400 mg/kg administered 3 h after the second dose of DI-1859 administration on day 2; G6: DI-1859 (50 mg/kg, qD for 3 days), a single dose of APAP at 400 mg/kg administered 3 h after the second dose of DI-1859 administration on day 2; G7: APAP (400 mg/kg, a single dose), followed with DI-859 at 25 mg/kg 3 h after APAP administration and two additional doses on day 2 and day 3; and G8: APAP (400 mg/kg, a single dose), followed with DI-859 at 50 mg/kg 3 h after APAP administration and two additional doses on day 2 and day 3. n = 8–9 mice per group. Source data are provided as a Source Data file.
Western blotting was performed as described previously. […]

[8] = biological target: T1, DCN1; assay: BLI assay; assay type: binding; set-up: biotin (chemical labelling, EZ-Link long-chain reagent)
Procedure: BLI experiments were performed using an OctetRED96 instrument from PALL/ForteBio, as previously described. All assays were run at 30 °C using PBS (pH 7.4) as the assay buffer, in which 0.1% BSA, 0.01% Tween-20, and 2% DMSO were added. DCN1 protein was biotinylated using the Thermo EZ-Link long-chain biotinylation reagent. Biotinylated DCN1 protein was tethered on super streptavidin biosensors (ForteBio) by dipping sensors into 10 µg/mL protein solutions. To eliminate loose nonspecific bound protein and establish a stable base line, sensors with proteins were moved and dipped into wells with pure assay buffer and equilibrated in the buffer for 10 min. Association–dissociation cycles were performed by moving and dipping sensors into compound solution wells then into pure buffer wells. DMSO-only reference was included in all assays.
Target sequence in this assay (Q96GG9 whole entry): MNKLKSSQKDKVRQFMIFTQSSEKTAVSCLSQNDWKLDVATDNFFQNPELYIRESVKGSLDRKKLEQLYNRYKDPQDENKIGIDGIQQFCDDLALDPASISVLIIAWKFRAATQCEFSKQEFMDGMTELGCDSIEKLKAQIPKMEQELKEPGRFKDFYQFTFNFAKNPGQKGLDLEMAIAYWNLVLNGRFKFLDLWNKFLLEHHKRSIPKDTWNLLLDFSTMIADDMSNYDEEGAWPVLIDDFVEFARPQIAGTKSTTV

[9] = test system: neddylation of cullin 3; assay: Western blot, cullin 3 neddylation in THLE2 liver cells; assay type: cell-based, human
Procedure: as §1

[10] = test system: HO-1 protein; assay: Western blot, HO-1 protein in THLE2 cells; assay type: cell-based, human; conditions: THLE2, Fig. 6b
Procedure: as §1

[11] = 10 min incubation, 1.2-fold excess inhibitor

SMILES | covalent complex formation / reaction kinetics with DCN1 protein (in words) [1] | Percentage of the formation of covalent complex with DCN1 protein [1, 11] | Percentage of the formation of covalent complex with DCN1 protein ([1]; 60 min (1 h) incubation) | Percentage of the formation of covalent complex with DCN1 protein ([1]; 180 min (3 h) incubation) | concentration as low as which cullin 3 neddylation is inhibited [2] | potency in inhibition of cullin 3 neddylation compared with DI-591 [2] | times more potent than DI-591 in inhibition of cullin 3 neddylation [2] | selectivity in inhibition of the neddylation of cullin 3 over other cullin members [3] | times more potent than DI-591 in inducing accumulation of NRF2 protein [4] | effect on protein levels of KEAP1 and p62 [5] | upregulation of NRF2 protein in the mouse liver [7] | other results
C=C(CN1CCOCC1)C(=O)NC[C@@H](NC(=O)[C@H](Cc1nc2ccc(C(C)C)cc2s1)NC(=O)CC)C1CCCCC1 [DI-1548] | very fast covalent complex formation | 100% | 100% | 100% | ≤ 1 nM | much more potent than DI-591 | ~ 1000 times | > 1000 fold and 1000 fold | 100–1000 times | no obvious effect | robust upregulation | time within which the neddylation of cullin 3 is effectively inhibited ([2]; U2OS, Fig. 6c): ≤ 5 min; effect on the neddylation of cullin 1 ([3]; U2OS, treatment time up to 48 h): no effect; effect on the neddylation of cullin 1, 2, 4A, 4B, and 5 ([3]; concentrations up to 1000 nM): no obvious effect; effect on the levels of p21, BIM and CDT1 proteins ([6]; concentrations up to 1000 nM): no effect; dissociation phase of the complex with DCN1 [8]: no dissociation phase; concentration at which the BLI signal reaches near its maximum ([8]; 1.56 to 100 nM tested): 25 nM
C=C(CN(C)C)C(=O)NC[C@@H](NC(=O)[C@H](Cc1nc2ccc(C(C)C)cc2s1)NC(=O)CC)C1CCCCC1 [DI-1859] | very fast covalent complex formation | 100% | 100% | 100% | ≤ 1 nM | much more potent than DI-591 | ~ 1000 times | 1000 fold | 100–1000 times | no obvious effect | robust upregulation | times more potent than MLN4924 in inhibition of the neddylation of cullin 3 [9]: ~ 30 times; inhibition of neddylation of cullin members ([3]; THLE2, Fig. 6b): similar, high selectivity; HO-1 protein level [10]: dose dependently upregulates; effect on protein level of CDT1 ([6]; THLE2, Fig. 6b): no effect; persistence of upregulation of NRF2 in mouse liver [7]: > 24 h
